Reference: patent publication US4946957A, “Anti-tumor DC-52 derivatives” (Kyowa Hakko Kogyo Co., Ltd., priority 1986, dated 1990)
Read-outs that look alike come from different tables or passages of the source.

What was measured:
[1] = system: lymphocytic leukemia P-388; test: Anti-tumor activity against lymphocytic leukemia P-388 (i.p. implanted, single i.p. dose); format: in vivo, male CDF mice; conditions: Mus musculus, P388, ip, read-out: T/C
Protocol: The experiment was carried out in the following manner.
Five male CDF mice each having a weight of about 22 g were used for each group as test animals, and 1×10^6 cells of lymphocytic leukemia P-388 tumor were implanted intraperitoneally into the test animals. After 24 hours, 0.2 ml of phosphate-buffered physiological saline containing a test compound was administered once intraperitoneally. The life-prolongingeffect of the compound was represented by T/C.

[2] = Acute toxicity (single i.p. administration); conditions: mouse, in vivo, ip, ddy mice, method of Behrens-Kolber
Protocol: Five ddy mice were used for each group as test animals, and each test compound was administered once intraperitoneally to the respective groups of animals. LD50 was calculated from the death-rate of each group according to the method of Behrens-Kolber.

[3] = system: a variety of bacteria; conditions: in words; Japanese Published Unexamined Patent Application No. 170189/82; cited from earlier work
[4] = system: lymphocytic leukemia P-388; conditions: in words; Japanese Published Unexamined Patent Application No. 170189/82; cited from earlier work
[5] = in words; Japanese Published Unexamined Patent Application No. 210086/84; cited from earlier work
[6] = dose 12.5 mg/kg, single i.p., 24 hours after implantation of 1×10^6 P-388 cells, life-prolonging effect
[7] = dose 25 mg/kg, single i.p., 24 hours after implantation of 1×10^6 P-388 cells, life-prolonging effect

COc1ccc(Cl)c2c1C(CO)N1C(C#N)C3CC(C(=O)O)C(C1C2)N3C (stereo not shown) [Compound 1]
response vs control in vivo at 12.5 mg/kg ([1]; 24 h): 123% | LD50 [2]: 50 mg/kg

COc1ccc(Cl)c2c1C1COC3C4CC(C(=O)O)C(C(C2)N13)N4C (stereo not shown) [Compound 2]
response vs control in vivo at 12.5 mg/kg [1, 6]: 140%

COc1ccc(Br)c2c1C(CO)N1C(C#N)C3CC(C(=O)O)C(C1C2)N3C (stereo not shown) [Compound 3]
LD50 [2]: 50 mg/kg

COc1ccc(Br)c2c1C1COC3C4CC(C(=O)O)C(C(C2)N13)N4C (stereo not shown) [Compound 4]
response vs control in vivo at 12.5 mg/kg [1, 6]: 150%

COc1ccc(I)c2c1C(CO)N1C(C#N)C3CC(C(=O)O)C(C1C2)N3C (stereo not shown) [Compound 5]
response vs control in vivo at 50 mg/kg ([1]; 24 h): 131% | LD50 [2]: 100 mg/kg

COc1ccc(I)c2c1C1COC3C4CC(C(=O)O)C(C(C2)N13)N4C (stereo not shown) [Compound 6]
response vs control in vivo at 25 mg/kg [1, 7]: 124%

COc1ccc(C=O)c2c1C(CO)N1C(C#N)C3CC(C(=O)O)C(C1C2)N3C (stereo not shown) [Compound 7]
response vs control in vivo at 200 mg/kg ([1]; dose 200 mg/kg, single i.p., 24 hours after implantation of 1×10^6 P-388 cells, life-prolonging effect): 138%

COc1ccc(C#N)c2c1C(CO)N1C(C#N)C3CC(C(=O)O)C(C1C2)N3C (stereo not shown) [Compound 9]
response vs control in vivo at 25 mg/kg ([1]; 24 h): 140% | LD50 [2]: > 100 mg/kg

COc1ccc(C#N)c2c1C1COC3C4CC(C(=O)O)C(C(C2)N13)N4C (stereo not shown) [Compound 10]
LD50 [2]: > 50 mg/kg

COc1ccc(O)c2c1C(CO)N1C(C#N)C3CC(C(=O)O)C(C1C2)N3C (stereo not shown) [Compound 11]
response vs control in vivo at 25 mg/kg [1, 7]: 142%

COc1cccc2c1C1COC3C4CC(C(=O)O)C(C(C2)N13)N4C (stereo not shown) [DC-52]
antibacterial activity [3]: shows antibacterial activity against a variety of bacteria | anti-tumor activity against lymphocytic leukemia P-388 and the like [4]: has anti-tumor activity against lymphocytic leukemia P-388 and the like

COc1cccc2c1C(CO)N1C(C#N)C3CC(C(=O)O)C(C1C2)N3C (stereo not shown) [DX-52-1]
anti-tumor activity [5]: having anti-tumor activity
